PMC7601674, “CoQ10 Deficient Endothelial Cell Culture Model for the Investigation of CoQ10 Blood–Brain Barrier Transport” (Journal of Clinical Medicine, 2020)

Legend:
[1] = test system: bEnd.3 BBB model; conditions: cited from earlier work
[2] = test system: PBEC cellular CoQ10 content; test: Cellular CoQ10 depletion by pABA, PBEC; format: cell-based, porcine
Experimental: (§1) Final CoQ10 concentrations (nmol/L) were calculated as a ratio of CoQ10/CoQ10–[^2H9] peak areas, and quantified against the corresponding calibration curve, with appropriate correction for dilution. For intracellular determination of CoQ10 the concentration was divided by total protein (mg/mL) and expressed as pmol/mg (nmol/g) of protein.

[3] = test system: bEnd.3 cellular CoQ10 content; test: Cellular CoQ10 depletion by pABA, bEnd.3; format: cell-based, mouse
Experimental: as §1

[4] = test system: bEND.3 cells; test: MTT cell viability assay; format: cell-based, mouse; conditions: pABA up to 1 mM, 5 days
Experimental: Cell viability was determined using the MTT assay described by Mosmann. Cells were passaged onto 96-well plates, grown to confluence and washed with HBSS prior to the addition of 3-[4,5-dimethylthiazol-2-yl]-2,5-diphenyl tetrazolium bromide (MTT; 1 mg/mL) in DMEM (without phenol red). Cells were then incubated for 4 h at 37 °C, 5% CO2, after which the medium was removed, and the remaining formazan crystals dissolved in propan-2-ol (100 μL/well). The resulting purple solution was spectrophotometrically measured at 540 nm using a Multiskan Ascent plate reader with Ascent software (MTX LabSystems, USA).

[5] = test system: MRC complex I; test: Mitochondrial respiratory chain enzyme activity, complex I; format: cell-based, mouse
Experimental: (§2) Activities of the mitochondrial respiratory chain enzymes; complex I, complex II-III and complex IV together with the mitochondrial marker enzyme, and citrate synthase (EC 2.3.3.1) were determined spectrophotometrically on a Uvikon XL spectrophotometer with LabPower software (Version 2.06S, Northstar Scientific Ltd., Potton, UK) according to the method previously described by Hargreaves et al.. Results were expressed as a ratio to citrate synthase activity, a validated biomarker of mitochondrial content, and were normalised against mg protein. Protein quantification was determined according to the Lowry method using BSA as a standard.

[6] = test system: MRC complex II-III; test: Mitochondrial respiratory chain enzyme activity, complex II-III; format: cell-based, mouse
Experimental: as §2

[7] = test system: MRC complex IV; test: Mitochondrial respiratory chain enzyme activity, complex IV; format: cell-based, mouse; conditions: bEND.3, 1 mM pABA 5 days
Experimental: as §2

[8] = test system: citrate synthase (EC 2.3.3.1); test: Citrate synthase activity; format: cell-based, mouse; conditions: bEND.3, 1 mM pABA 5 days
Experimental: as §2

[9] = test system: PBEC tight junction integrity; test: Transendothelial electrical resistance (TEER) of PBEC monolayer; format: cell-based, porcine; conditions: PBEC after 5 days pABA (1 mM); control 856 ± 71; n = 6
Experimental: (§3) Primary porcine brain endothelial cells (PBEC) were isolated and cultured as previously published. Briefly, cells were seeded at 10 × 10^4 cells/cm^2 on collagen and fibronectin-coated polycarbonate Transwell filters (Corning 0.4 µm pore size) in 12-well plates, and grown in low glucose DMEM (Sigma D5546) supplemented with bovine plasma-derived serum (10% v/v; BPDS, First Link UK), glutamine (2 mM), heparin (125 µg/mL), penicillin (100 U/mL) and streptomycin (100 µg/mL), at 37 °C in a 5% CO2 incubator. PBECs were grown in non-contact co-culture above primary rat astrocytes until confluent, then supplemented with hydrocortisone (550 nM), 8-4-chlorophenylthio-cAMP (250 µM) and RO-20-1724 (17.5 µM) in serum-free medium for a further 3 days. Before assays of CoQ10 transport, PBECs were separated from astrocytes by moving transwell filters to fresh culture plates.
(§4) As previously described, para-aminobenzoic acid (pABA) was used as a pharmacological reagent to induce CoQ10 deficiency. The mechanism of action is via competitive inhibition of polyprenyl-4-hydroxybenzoate transferase (Coq2p), a key enzyme in the later stages of the CoQ10 biosynthetic pathway. Following the method of Duberley et al., 1 mmol/L pABA was added to culture medium for 5 days prior to assay.

[10] = test system: claudin-5 tight junction protein in PBEC; test: Confocal microscopy of claudin-5; format: cell-based, porcine; conditions: PBEC after 5 days pABA (1 mM)
Experimental: Cells for confocal microscopy were fixed in paraformaldehyde (4% w/v in PBS) for 45 min, washed with HBSS and stored in glycerol (70% v/v in PBS) until use. Cells were permeabilised with Triton-x 100 (0.1% v/v in PBS), incubated with anti-Claudin 5 Monoclonal Antibody (4C3C2) Alexa Fluor 488 (1 in 80 dilution in DAKO, overnight, 4 °C, Thermofisher) to visualise tight junctions. Samples were then mounted in Vectashield containing DAPI for nuclei staining. The Nikon A1 inverted confocal microscope was used with spectral detector and Eclipse Ti-E microscope at ×40 magnification to generate digital images, analysed using Fiji (ImageJ).

[11] = test system: bEnd.3 cells (mouse BBB cell line) monolayer; test: CoQ10 transport assay across bEnd.3 monolayer on Transwell filters (control or pABA treated); conditions: for A to B CoQ10 transport, % of control / Apical to Basal CoQ10 transport, % of control: BLT-1 10 µM, FPS-ZM1 1 µM; for A to B CoQ10 transport, % of control: verapamil 0.1 mM, added 2 h before, 60 min; for Apical to Basal CoQ10 transport, % of control: RAP 0.5 µM; for Effect on Basal to Apical transport of CoQ10: antioxidant 50 µM co-administered with CoQ10 10 µM; for Effect on B to A transport of CoQ10: pABA treated bEnd.3, antioxidant 50 µM
Experimental: (§5) Unless stated, CoQ10 was pre-treated by incubation in serum at a concentration of 20 µM for 45 min at 37 °C, and added to assay buffer on either the Apical (blood facing) or Basal (brain facing) side of the cells on Transwell filters. The final concentration of CoQ10 used in the assays was 10 µM in serum (50% v/v). Cells were then incubated for 60 min on an orbital shaker (100 rpm) at 37 °C. Samples of the Apical (A) and Basal (B) media were then taken for analysis to calculate A to B (blood-to-brain) or B to A (brain-to-blood) Papp in cm/s, as previously described by Patabendige et al.. CoQ10 concentrations were determined using the LC-MS/MS method described above (Section 2.2).
(§6) Inhibitors of transport were added to both Apical and Basal sides of the cells for 2 h prior to assay. Antioxidants were pre-incubated with CoQ10 in serum for 45 min prior to assay, and were present in the assay buffer. Compounds used were; SR-B1 inhibitor, blocker of lipid transport-1 (BLT-1; 10 µmol/L)
as §4

[12] = design: method as in PMID 11259830; conditions: cited from earlier work
[13] = test system: primary porcine brain endothelial cells (PBEC) monolayer; test: CoQ10 transport assay across PBEC monolayer on Transwell filters; conditions: PBEC; RAP 0.5 µM applied to the basal (brain side)
Experimental: as §3, §5, §6

[14] = bEND.3, 1 mM pABA 5 days, ratio to citrate synthase
[15] = pABA treated (1 mM; 5 days) bEnd.3

CC[C@H]1/C=C/C=C/C[C@@H](C)[C@H](O)[C@@](C)(O)C(=O)[C@@H](C)[C@H](O)[C@@H](C)C(=O)[C@@H](C)[C@H](O)[C@@H](C)/C=C/C(=O)O[C@@H]2[C@H](C)[C@H](CC1)O[C@]1(CC[C@H](C)[C@H](C[C@@H](C)O)O1)[C@H]2C [oligomycin]
Permeability to FITC-dextran [1]: doubled

N#CC(C#N)=NNc1ccc(OC(F)(F)F)cc1 [FCCP]
Permeability to FITC-dextran [1]: doubled

Nc1ccc(C(=O)O)cc1 [pABA, para-aminobenzoic acid]
Depletion of cellular CoQ10 relative to controls ([2]; 1 mM pABA 5 days, n = 4): 36% | Cellular CoQ10, % of control ([2]; pABA 1 mmol/L 5 days): 36 % of control | Depletion of cellular CoQ10 relative to controls ([3]; bEnd.3, 1 mM pABA 5 days, n = 4): 43% | Cellular CoQ10, % of control ([3]; bEnd.3, pABA 1 mmol/L 5 days): 57 % of control | Cell viability [4]: no change in cell viability | Decrease in MRC complex I activity [5, 14]: 68% | MRC complex I activity, % of control ([5]; bEnd.3, pABA 1 mmol/L 5 days): 32 % of control | Decrease in MRC complex II-III activity [6, 14]: 72% | MRC complexes II-III activity, % of control ([6]; bEnd.3, pABA 1 mmol/L 5 days): 28 % of control | MRC complex IV activity, % of control [7]: 80 % of control | Citrate synthase activity [8]: no significant change | Transendothelial electrical resistance (TEER) [9]: 49 ± 9 Ω · cm^2 | Claudin-5 localisation [10]: re-location of claudin-5 tight junction protein away from the cell membrane

O=C(c1ccc(Cl)cc1)N(Cc1ccccc1)C1CCCCC1 [FPS-ZM1]
Effect on “net” transport of CoQ10 ([11]; control bEnd.3): “net” −ve transport | A to B CoQ10 transport, % of control ([11]; control bEnd.3): 50 % of control | Effect on “net” transport of CoQ10 [11, 15]: abolished “net” A to B transport | Apical to Basal CoQ10 transport, % of control [11, 15]: 45 % of control

C=C(C)[C@H]1Cc2c(ccc3c2O[C@@H]2COc4cc(OC)c(OC)cc4[C@@H]2C3=O)O1 [rotenone]
Permeability to FITC-dextran [1]: doubled

COC1=C(OC)C(=O)C(CCCCCCCCCCO)=C(C)C1=O [idebenone]
Direction of transport [11]: transport toward the brain side (A to B) greater than efflux to blood (B to A) | Permeability (Papp) compared to CoQ10, A to B direction [11]: 280 × | Permeability (Papp) compared to CoQ10, B to A direction [11]: 150 × | LogP [12]: less than 5

Cc1c(C)c2c(c(C)c1O)CCC(C)(C(=O)O)O2 (stereo not drawn) [Trolox]
Effect on Basal to Apical transport of CoQ10 ([11]; control bEnd.3): increased Basal to Apical transport of CoQ10 | Effect on B to A transport of CoQ10 [11]: enhanced B to A transport

CCCCCCC1CCCC1=NNC(N)=S (stereo not drawn) [BLT-1, blocker of lipid transport-1]
Effect on “net” transport of CoQ10 ([11]; control bEnd.3): “net” −ve transport | A to B CoQ10 transport, % of control ([11]; control bEnd.3): 44 % of control | Effect on “net” transport of CoQ10 [11, 15]: no significant effect | Apical to Basal CoQ10 transport, % of control [11, 15]: no effect

Cc1c(C)c2c(c(C)c1O)CC[C@@](C)(CCC[C@H](C)CCC[C@H](C)CCCC(C)C)O2 [α-tocopherol]
Effect on Basal to Apical transport of CoQ10 ([11]; control bEnd.3): increased Basal to Apical transport of CoQ10 | Effect on B to A transport of CoQ10 [11]: enhanced B to A transport

B1: receptor-associated protein (protein, UniProt P30533 35-357, looked up)
Alpha-2-macroglobulin …: YSREKNQPKPSPKRESGEEFRMEKLNQLWEKAQRLHLPPVRLAELHADLKIQERDELAWKKLKLDGLDEDGEKEARLIRNLNVILAKYGLDGKKDARQVTSNSLSGTQEDGLDDPRLEKLWHKAKTSGKFSGEELDKLWREFLHHKEKVHEYNVLLETLSRTEEIHENVISPSDLSDIKGSVLHSRHTELKEKLRSINQGLDRLRRVSHQGYSTEAEFEEPRVIDLWDLAQSANLTDKELEAFREELKHFEAKIEKHNHYQKQLEIAHEKLRHAESVGDGERVSRSREKHALLEGRTKELGYTVKKHLQDLSGRISRARHNEL
Effect on B-to-A CoQ10 efflux [13]: inhibited the B-to-A efflux | Effect on “net” transport of CoQ10 ([11]; control bEnd.3): “net” +ve transport toward the brain side (A to B) | Effect on “net” transport of CoQ10 [11, 15]: enhanced “net” +ve transport toward the brain side | Apical to Basal CoQ10 transport, % of control [11, 15]: 164 % of control
